In patent US20230094545A1, “S1P RECEPTOR MODULATORS” (AKAAL PHARMA PTY LTD, priority 2020, published 2023):
Like-named read-outs stand apart in the source and are kept apart here.

Tests used:
[1] = test system: burn wound and scratch wounds; experiment: Topical formulation in wound patients (case reports); assay type: in vivo, human
Experimental: A patient presented with a second degree burn wound on the inner surface of their middle finger of their left hand, suffering from swelling, blistering and pain at the site of injury. A topical gel formulation of compound of formula (I) was applied topically to the site of injury.
A patient presented with a scratch wounds on hands while cleaning gutters. These become inflamed and painful in 3 hours.

[2] = Solubility in water / precipitation in buffer; assay type: physicochemical; conditions: listed as compound of formula I
Experimental: To solubilize the free base in water the novel technology AvignaSOL (N,N-Dimethyl hexanamide; patent number: U.S. Pat. No. 9,186,338B2) and its higher derivatives such as octinamide, decamide which improve the absorption of various poorly soluble drugs was used. AvignaSOL as 1-70% ww % assisted the solubilization of free base as 1 gm/20 mL of water. The solubility of free base in water assisted its direct use in various formulation such as creams, gels, solutions which together with the permeation enhancing effect will be harnessed to improve skin penetration and/or bioavailability and in altering the pharmacokinetics and pharmacodynamics profile of free base.
The AvignaSOL having a log P of ˜1.6 hinder the release by increasing the hydrophobicity of the delivery system. […] The combination of compound of formula I with other ingredients including sustained release enhancer with or without AvignaSOL were prepared as novel formulation techniques to improve and/or alter the pharmacokinetics and pharmacodynamics profile of compound of Formula I.

[3] = test system: CFA mediated pain; experiment: CFA (Freund's adjuvant) mediated pain, topical treatment; assay type: in vivo, Sprague Dawley Rats
Excerpt: The total 24 female Sprague Dawley Rats were assigned to two test and two control groups having 6 animals per group. Animals from G1 and G2 received CFA on Day 1 by intraplanter route followed application of test item (0 and 3% respectively), onto injection site from Day 1 to Day 7. Group G3 and G4 animals received deep incision through the skin and fascia of the plantar foot followed by application of test item (0 and 3% respectively), onto the incision site from Day 1 to Day 7. Clinical signs, body weight and pain assessment parameters like Von Frey estimation and FOB was evaluated and the pain reduction results at Day 7 are summarized in Table 7.

[4] = test system: atopic dermatitis and psoriasis disease models; experiment: Atopic dermatitis and psoriasis disease models, cytokines; conditions: in vivo
[5] = test system: psoriasis; experiment: Topical treatment of psoriasis patients; assay type: in vivo, human
Experimental: (§1) Twelve psoriasis patients were treated with the compound of Formula I@30 mg daily dosing under occlusion as topical treatment for 28 consecutive days. […] The systemic exposure after topical applications was recorded below the limit of quantification (BLQ) <0.400 ng/mL.

[6] = Topical treatment of psoriasis patients; assay type: in vivo, human; conditions: human, in vivo, 30 mg daily; after topical applications, below the limit of quantification; read-out: systemic exposure
Experimental: as §1

[7] = test system: middle cerebral artery occlusion (MCAO); experiment: Middle cerebral artery occlusion (MCAO) model of stroke; assay type: in vivo; conditions: oral 1, 3 and 5 mg/kg; ischemia 60 min, reperfusion 72 h
Experimental: The compound of Formula I was assessed in an animal model of stroke, namely the middle cerebral artery occlusion (MCAO) model. The effect of a compound of Formula I on infarctions (TTC staining) and BBB leakage (Evan's blue extravasation) ischemia for 60 min and reperfusion for 72 h was assessed.

[8] = test system: microglial (BV2 cells) and macrophages (Raw cells); experiment: LPS-treated microglial and macrophage cells, cytokines by ELISA; assay type: cell-based; conditions: 1-5 μg/mL, 4 hrs prior to LPS 500 ng/mL, p<0.05
Experimental: Treatment of a compound of formula (I) (1-5 μg/mL) to the cultured microglial (BV2 cells) and macrophages (Raw cells) was made 4 hrs prior to treatment with lipopolysaccharide (LPS) at 500 ng/mL. After 16-18 hr of drug treatment the cytokines (TNFα, IL1β and IL6) were measured in culture media by ELISA and expression levels of cyclooxygenase2 (Cox-2), inducible […] (iNOS) or beta actin were analysed in cell homogenates by western analysis.

[9] = test system: RAW 264.7 cell line (monocyte cells); experiment: Heat-killed P. acne challenged RAW 264.7 cells, cytokines by ELISA; assay type: cell-based; conditions: Mus musculus, RAW264.7, compared to untreated
Experimental: RAW 264.7 cell line (monocyte cells) challenged with the heat-killed Propionibacterium acne (P. acne) and incubated for 1 hour and were divided into four groups as G1=not challenged with P. acne, G2=challenged with P. acne but untreated, G3=challenged with P. acne and treated with 1 μM of compound of formula I, G3=challenged with P. acne and treated with 3 μM of compound of formula I. The ELISA method was used to analyze the effect of compound of formula I on the secretion of proinflammatory cytokines the TNFα and IL6. Compound of formula I inhibits the cytokines in P. acne challenged monocyte cells. The results are shown in below FIG. 6. The compound of formula I inhibit the secretion of TNFα@1 μM=˜42% and @3 μM=˜69% and IL6@1 μM=˜27% and @3 μM=˜42% compared to untreated in P. acne challenged cell line.

[10] = test system: DSS-induced colitis; experiment: DSS-induced ulcerative colitis model; assay type: in vivo, Balb/C Mice
Experimental: The effect of a compound of formula (I) was assessed in an animal model of Ulcerative colitis. 24 Balb/C Mice were divided into […]; control and treatment (n=6). Acute colitis was induced in all groups by adding 2.5% w/v Dextran Sulphate Sodium (DSS) treatment in drinking water for 5-7 days. A compound of Formula I was administered at dose of 3 mg/kg body weight by oral route as a repeated dose for 3 or 6 days, consecutively. […] During day 6 these observations were reduced to 16.66% in control and 0.00% in a compound of Formula I group.
The mean colon lengths were 9.67 cm, 9.88 cm, 11.20 cm and 13.02 cm in day 3 control group, day 6 control group, day 3 a compound of Formula I treated group and day 6 a compound of Formula I treated group respectively. […] The severity of presence of haemorrhages with desquamated cells seen in lumen of colon of control animals was reduced in a compound of Formula (I) treated animals.

[11] = read-out: inhibition of secretion of IL6
[12] = read-out: inhibition of secretion of TNFα

CCCOc1ccc(-c2nc(-c3ccc4oc(C(N)(CO)CO)cc4c3)no2)cc1Cl [compound of formula (I)]
adverse side effects ([1]; both cases): No adverse side effects | swelling and pain of scratch wounds ([1]; ointment formulation, one patient): swelling and pain reduced dramatically | swelling and blistering of burn wound ([1]; topical gel formulation, after 10 minutes, one patient): swelling and blistering had visibly reduced dramatically | pain of burn wound ([1]; topical gel formulation, one patient): significant pain relief | solubility in water [2]: soluble in water | Pain reduction results at Day 7, CFA mediated pain ([3]; 3% (G2), Placebo (G1) 0.17): 0.00 | pain relief ([3]; 3% topical Day 1 to Day 7, day 7): complete pain relief | cytokines IL17, IL23, IL2 [4]: downregulates the cytokines IL17, IL23, IL2 | absolute lymphocyte count ([5]; 30 mg daily topical, 28 days): no systemic change in the absolute lymphocyte count | tolerability ([5]; 30 mg daily topical, 28 days): well tolerated | local psoriasis severity index (LPSI) score ([5]; day 28, from 5.8 (day 1), 30 mg daily topical under occlusion, p<0.0016): −2.1 | plaque area ([5]; some subjects, image analysis): reduction in plaque area | concentration at 28 days [6]: < 0.4 ng/mL | infarct volume, infarct area, sensory motor function, blood brain barrier leakage [7]: significantly reduced the infarct volume, infract area and sensory motor function and blood brain barrier leakage | proinflammatory cytokines (TNFα, IL1β and IL6) [8]: significant reduction of proinflammatory cytokines | inhibition at 1 µM [9, 11]: ~27% | inhibition at 1 µM [9, 12]: ~42% | inhibition at 3 µM [9, 11]: ~42% | inhibition at 3 µM [9, 12]: ~69% | DSS-induced colitis, overall ([10]; 3 mg/kg oral daily): improvement of DSS-induced colitis | mean colon length ([10]; day 3, 3 mg/kg oral): 11.20 cm | gross pathological observations (emaciated, anal area soiled with blood) ([10]; day 6, 3 mg/kg oral): 0.00% | mean colon length ([10]; day 6, 3 mg/kg oral): 13.02 cm | increase in mucus secreting goblet cells ([10]; histopathology day 6): moderate ( 4/6 animals) to minimal (⅙ animals) increase | infiltration of MNC ([10]; histopathology day 6): minimal in 2/6 animals and mild in ⅙ animals | thickness of mucosa ([10]; histopathology day 6, compared to control): markedly reduced | incidence of increase in thickness of mucosa ([10]; histopathology of colon): mild in 3/6 animals and minimal in 2/6 animals | number of mucus secreting goblet cells ([10]; histopathology of colon): increased moderately ( 4/6) | severity of haemorrhages with desquamated cells in lumen of colon ([10]; histopathology of colon): reduced
